Measured values reported in patent US20260256751A1, “COMBINATION OF BETA-2-ADRENERGIC RECEPTOR AGONISTS AND GLP-1 RECEPTOR AGONISTS FOR USE IN TREATING HYPERGLYCAEMIA” (ATROGI AB, priority 2023, published 2026).

Experiments:
[1] = test system: differentiated L6-myotubes; test: cAMP production relative to isoprenaline (Biological example 2 of WO 2019/053427); format: cell-based; settings: 0.25 h, compound at 10 μM, activity relative to isoproterenol at 10 μM
Text: For example, the level of cAMP production induced by a given compound can be determined by reference to the amount induced by a defined concentration of that compound relative to that induced by the same concentration of a reference compound, such as isoprenaline, using techniques known to those skilled in the art (e.g. following the protocol as described in the biological examples provided in WO 2019/053427, i.e. in cells, such as differentiated L6-myotubes, having been stimulated with isoprenaline or the compound with a final concentration of 1×10^−5 M, for 15 min in stimulation buffer, such as HBSS supplemented with 1% BSA, 5 mM HEPES and 1 mM IBMX, at pH 7.4).
(§1) Compounds described in publications referenced and incorporated herein were screened in accordance with the procedures outlined in Biological example 1 and Biological example 2 of WO 2019/053427.

[2] = test system: differentiated L6-myotubes; test: Glucose uptake screen (Biological example 1 of WO 2019/053427); format: cell-based; settings: compound at 10 μM, activity relative to isoproterenol at 10 μM, read-out: Biological example 1 of WO 2019/053427 (GU)
Experimental: as §1
L6-myoblasts were grown in Dulbecco's Modified Eagle's Medium (DMEM) containing 1 g/L glucose supplemented with 10% fetal bovine serum (FBS), 2 mM L-glutamine, 50 U/mL penicillin, […] streptomycin and 10 mM HEPES. Cells were plated at 1x 10^5 cells per mL in 24-well plates. After reaching 90% confluence the cells were grown in medium containing 2% FBS for 7 days where upon cells differentiated into myotubes. The differentiated L6-myotubes were serum-starved overnight in medium containing 0.5% fatty-acid free BSA and stimulated with Compound A at a final concentration of 1×10^−5 M in the presence of the selective β2-adrenergic receptor antagonist ICI-118551. After 1 h 40 min the cells were washed with warm, glucose free medium twice and another portion of agonist was added to the glucose free medium. After another 20 min of incubation the cells were exposed to 50 nM ^3H-2-deoxyglucose for 10 min before washed in ice cold glucose free medium three times and lysed in 400 µl/well 0.2 M NaOH for 1 h at 60° C. The cell lysate was mixed with 4 ml scintillation buffer (Emulsifier Safe, Perkin Elmer) and the radioactivity was detected in a P-counter (Tri-Carb 4810TR, Perkin Elmer).

Row | Structure (SMILES) | Emax at 10 µM [1] [%] | Emax at 10 µM [2] [%]
1 | CCOC(=O)CO[C@H]1CC[C@H](C(C)(C)NC[C@H](O)c2cncc(F)c2)CC1 [Compound 409, ethyl [(1R,4r)-4-{1-[(R)-2-(5-fluoro-3-pyridyl)-2-hydroxyethylamino]-1-methylethyl}cyclohexyloxy]acetate] | < 25 | > 75
2 | CC12CC(C1)[C@@H]([C@@H](O)c1cncc(F)c1)N2 [Compound 221, (S)-{(S)-1-methyl-2-azabicyclo[2.1.1]hex-3-yl}(5-fluoro-3-pyridyl)methanol] | < 25 | 50 to 75
3 | CC(C)(NC[C@H](O)c1cccc(F)c1)[C@H]1CC[C@H](O)CC1 [Compound 283, (R)-1-(m-fluorophenyl)-2-{1-methyl-1-[(1r,4R)-4-hydroxycyclohexyl]ethyl-amino}-1-ethanol] | < 25 | 50 to 75
4 | CC(C)(C)NC[C@H](O)c1ccc(F)c(N)c1F [Compound 149, (R)-1-(3-amino-2,4-difluorophenyl)-2-(tert-butylamino)-1-ethanol] | 25 to 50 | > 75
5 | COc1ccc(C[C@@]2(C)CC[C@H]([C@@H](O)c3cccc(F)c3)N2)cc1 [Compound 365, (S)-{(2R,5R)-5-[(p-methoxyphenyl)methyl]-5-methyl-2-pyrrolidinyl}(m-fluorophenyl)methanol] | < 25 | > 75
6 | CCC[C@@H]1CCC[C@@H]([C@H](O)c2cccc(Cl)c2)N1 [Compound 115, (R)-[(2S,6R)-6-propyl-2-piperidyl](m-chlorophenyl)methanol] | < 25 | > 75
7 | CC(C)(C[C@H]1CC[C@H](NS(C)(=O)=O)CC1)NC[C@H](O)c1cccc(C#N)n1 [Compound 426, 6-[(S)-2-{1,1-dimethyl-2-[(1r,4S)-4-(mesylamino)cyclohexyl]ethylamino}-1-hydroxyethyl]-2-pyridinecarbonitrile] | < 25 | > 75
8 | CS(=O)(=O)N[C@H]1CC[C@@H](C[C@@H]2CC[C@H]([C@H](O)c3cccc(F)c3)N2)CC1 [Compound 510, (R)-[(2R,5S)-5-{[(1s,4R)-4-(mesylamino)cyclohexyl]methyl}-2-pyrrolidinyl](m-fluorophenyl)methanol] | < 25 | > 75
9 | COc1ccc(CCC23CCC([C@H](O)c4cccc(F)c4)(CC2)N3)cc1 [Compound 540, (R)-(m-fluorophenyl){4-[2-(p-methoxyphenyl)ethyl]-7-azabicyclo[2.2.1]hept-1-yl}methanol] | 25 to 50 | 50 to 75
10 | O[C@H](c1cccc(F)c1)C12CCC(Cc3ccccc3)(CC1)N2 [Compound 388, (R)-(4-benzyl-7-azabicyclo[2.2.1]hept-1-yl)(m-fluorophenyl)methanol] | 25 to 50 | > 75
11 | COc1ccc(C[C@H]2CC[C@H]([C@@H](O)c3cncc(F)c3)N2)cc1 [Compound 380, (S)-{(2R,5R)-5-[(p-methoxyphenyl)methyl]-2-pyrrolidinyl}(5-fluoro-3-pyridyl)methanol] | < 25 | > 75
12 | O[C@H](c1cccc(F)c1)C12CCC(COCc3ccc(Cl)cc3)(CC1)N2 [Compound 396, (R)-(4-{[(p-chlorophenyl)methoxy]methyl}-7-azabicyclo[2.2.1]hept-1-yl)(m-fluorophenyl)methanol] | < 25 | > 75
13 | CC(C)(C[C@H]1CC[C@@H](NS(=O)(=O)C(F)(F)F)CC1)NC[C@H](O)c1cccc(F)c1 [Compound 493, (R)-2-{1,1-dimethyl-2-[(1s,4S)-4-(trifluoromesylamino)cyclohexyl]ethylamino}-1-(m-fluorophenyl)-1-ethanol] | < 25 | 25 to 50
14 | CCCCNC[C@H](O)c1csc(C(F)(F)F)n1 [Compound 72, (S)-2-(butylamino)-1-[2-(trifluoromethyl)-1,3-thiazol-4-yl]-1-ethanol] | < 25 | 25 to 50
15 | CCCCNC[C@H](O)c1cnc(NC(=O)C(C)C)s1 [Compound 74, N-{5-[(2S)-2-(butylamino)-1-hydroxyethyl]-1,3-thiazol-2-yl}2-methylpropionamide] | < 25 | 25 to 50
16 | O[C@H](c1cccc(F)c1)[C@H]1CCC2(CCCC2)N1 [Compound 168] | 25 to 50 | 50 to 75
17 | CC(C)(CC[C@H]1CC[C@@H](O)CC1)NC[C@H](O)c1ccccc1F [Compound 320, (R)-2-{1,1-dimethyl-3-[(1s,4R)-4-hydroxycyclohexyl]propylamino}-1-(o-fluorophenyl)-1-ethanol] | 25 to 50 | > 75
18 | CO[C@H]1CC[C@H](C[C@]2(C)CC[C@H]([C@@H](O)c3cccc(F)c3)N2)CC1 [Compound 363, (S)-[(2R,5S)-5-methyl-5-{[(1r,4S)-4-methoxycyclohexyl]methyl}-2-pyrrolidinyl](m-fluorophenyl)methanol] | < 25 | > 75
19 | CC12CCC([C@H](O)c3ccncc3F)(CC1)N2 [Compound 254, (R)-(3-fluoro-4-pyridyl)(4-methyl-7-azabicyclo[2.2.1]hept-1-yl)methanol] | < 25 | < 25
20 | CCCS(=O)(=O)N[C@H]1CC[C@H](CC(C)(C)NC[C@H](O)c2cccc(F)c2)CC1 [Compound 451, (R)-2-{1,1-dimethyl-2-[(1r,4R)-4-(propylsulfonylamino)cyclohexyl]ethylamino}-1-(m-fluorophenyl)-1-ethanol] | 25 to 50 | 50 to 75
21 | CC12CC(C1)[C@H]([C@H](O)c1ccccc1F)N2 [Compound 210, (R)-{(R)-1-methyl-2-azabicyclo[2.1.1]hex-3-yl}(o-fluorophenyl)methanol] | > 75 | > 75
22 | CCCS(=O)(=O)N[C@H]1CC[C@@H](CC(C)(C)NC[C@H](O)c2cccc(F)c2)CC1 [Compound 497, (R)-2-{1,1-dimethyl-2-[(1s,4S)-4-(propylsulfonylamino)cyclohexyl]ethylamino}-1-(m-fluorophenyl)-1-ethanol] | < 25 | 50 to 75
23 | CO[C@H]1CC[C@H](CC(C)(C)NC[C@H](O)c2cccc(F)c2)CC1 [Compound 249, (R)-2-{1,1-dimethyl-2-[(1r,4R)-4-methoxycyclohexyl]ethyl-amino}-1-(m-fluorophenyl)-1-ethanol] | < 25 | > 75
24 | CCCC1(CCC)CC[C@H]([C@@H](O)c2cccc(F)c2)N1 [Compound 158, (S)-[(R)-5,5-dipropyl-2-pyrrolidinyl](m-fluorophenyl)methanol] | < 25 | < 25
25 | CC(C)(C)NC[C@H](O)c1ccc(F)c(O)c1 [Compound 84, (R)-2-(tert-butylamino)-1-(4-fluoro-3-hydroxyphenyl)-1-ethanol] | 50 to 75 | > 75
26 | CC(C)(C[C@H]1CC[C@@H](S(N)(=O)=O)CC1)NC[C@H](O)c1cncc(F)c1 [Compound 519, (1S,4s)-4-{2-[(R)-2-(5-fluoro-3-pyridyl)-2-hydroxyethylamino]-2-methylpropyl}cyclohexanesulfonamide] | < 25 | > 75
27 | Oc1ccc(C(O)CNCCCC(F)(F)F)cc1 (centres unmarked) [Compound 31, 1-(p-hydroxyphenyl)-2-(4,4,4-trifluorobutylamino)-1-ethanol] | – | 50 to 75
